We go through 4 compounds from publication PMC9143562, “Hydrophilic CO-Releasing Material of PEGlyated Ruthenium Carbonyl Complex” (Materials, 2022).

Broadly, the logP is a log measure of how a compound divides between an organic and an aqueous phase.

Series [1] concerns myoglobin (lyophilised horse heart). Put plainly: Photo-activated CO release, myoglobin assay. To be noted: CO release half-life, 60 µM CO-RM, LED-UV 365 nm, PBS pH 7.4. The procedure:
The CO release activity of each CO-RM […] was measured with the “golden standard” of myoglobin assay. Firstly, sodium dithionite was added to reduce myoglobin to deoxy-myoglobin (deoxyMb) in PBS (pH = 7.4) at 37.8 °C. A stock solution of CO-RM was added and then activated by LED-UV radiation at 365 nm, releasing CO […]. The change of deoxyMb to carbonmonoxy-myoglobin (MbCO) was monitored by UV-vis spectroscopy. […] The half-lives of CO release rate of 4 at 60 µM is 166 s, 40 µM is 172 s, and 20 µM is 267 s. […]
3. CO-Release Measured by Standard Myoglobin Assay
The release of CO from the metal carbonyl compounds was studied by measuring the conversion of deoxy-myoglobin (deoxy-Mb) to carboxy-myoglobin (Mb-CO). The amount of Mb-CO formed was quantified by measuring the absorbance at 540 nm. […] A 2 mL quantity of this was measured to obtain a deoxy-Mb spectrum and then bubbled with CO to get a Mb-CO spectrum. […] The concentration of myoglobin in the stock solution was calculated from the maximal absorption peak of the Mb-CO solution at 540 nm (Equation 1).
Equation 1. Equation for calculating total myoglobin concentration in a saturated solution of Mb-CO; ε = extinction coefficient of Mb-CO=15.4 mM-1cm-1, OD540 = absorbance of Mb-CO solution […]
Intermediate concentrations of Mb-CO are calculated from the OD540. […] The new extinction coefficient was calculated (Equation 2). […]

Series [2] can be described thus: logP by flask-shaking method (n-octanol/water, UV-vis). To be noted: for logP: oil-water partition coefficient, n-octanol/water, by UV-vis. It counts as physicochemical. The procedure:
To identify the structural features of CO-RMs that govern the CO releasing behaviour, the CO release kinetics of 4–15 were correlated to the corresponding M-CO band and lipophilicity in Table 2. Firstly, the oil-water partition coefficient logP values of complexes were measured by the “flask-shaking” method with n-octanol and water, respectively. […] The water-solubility of these sawhorse ruthenium complexes mainly depend on both the axial glycol amino esters and bridging carboxylate, respectively. […]
4. Water-solubility Measured by the ﬂask - shaking method
The lipophilicity of complexes was measured by the ﬂask- shaking method where n-octanol and ultrapure water were used as the organic and aqueous phase respectively. First, make the pre saturated of oil-water two phase. Then the tested complex was dissolved in the isolated organic phase at a concentration of 1mg/mL, take 2 mL of liquld and 8mL aqueous phase was joined, the mixture was swirled for 12h at room temperature. The solution was then centrifuged, and the amounts of complex in organic layers were determined by UV-vis. Drawing standard curve and determination of oil-water partition coefficient. […]
5.4 UV-vis spectra of Lipophilicity (log Po/w)
Table S3. Stand curve measurement and calculation of Log P
Entry Standard curve equation Correlation coefficient(R2) […]

Series [3] has as its system acute hepatic ischemia-reperfusion injury. Also on record: method as in PMID 20444253, PMID 21270767. To be noted: rats; serum AST/ALT, liver histology score; cited from earlier work.
For series [4] the following is noted: cited from earlier work.
For series [5] the following is noted: human plasma; cited from earlier work.

For “[Ru2(CO)4(µ2-ŋ2-O2C-p-ClC6H5)2 (ŋ1-NH2CH2C(=O)OCH2CH2OCH3)2] [CO-RM 13]”, in series [1], the “t1/2, 60 µM” value came out at 16.1 min. In series [2] (concentration in n-octanol phase, UV-vis), this compound returned a Coctanol of 0.9201 mmol/L. In series [2] (concentration in water phase), this compound showed a Cwater of 0.05055 mmol/L. In series [2], this compound showed a logP of 1.26.

On to “[Ru2(CO)4(µ2-ŋ2-O2C-C14H9)2 (ŋ1-NH2CH2C(=O)OCH2CH2OCH3)2] [CO-RM 15]”, for which the logP result in series [2] is on record as “too hydrophobic to be evaluated”.

On to `[C-]#[O+].[C-]#[O+].[C-]#[O+].[C-]#[O+].[C-]#[O+].[C-]#[O+].[Cl][Ru][Cl].[Cl][Ru][Cl]` [CO-RM-02, [Ru(CO)3Cl2]2], for which, in series [3], the “effect on acute hepatic ischemia-reperfusion injury” value is reported as “attenuated acute hepatic ischemia-reperfusion injury in rats”. Besides, the “solubility in aqueous systems” value in series [4] is “poor solubility”.

As for `NCC(=O)O.[C-]#[O+].[C-]#[O+].[C-]#[O+].[Cl][Ru]` [CO-RM-03, [Ru(CO)3Cl(glycinate)]], the “half-life of CO release” value in series [5] is given as 3.6 min.
